Experimental data published in patent US20230279001A1, “IMIDAZO[1,2-A]PYRIDINE COMPOUNDS FOR THE TREATMENT OF AUTOIMMUNE DISEASE” (Hoffmann-La Roche Inc., priority 2020, published 2023).

Columns and labels:
[1] = Human microsome stability assay; type: in vitro ADME; details: human liver microsomes, 1 μM test compound, 37° C., NADPH regenerating system
Method: The human microsomal stability assay is used for early assessment of metabolic stability of a test compound in human liver microsomes.
Human liver microsomes (Cat. NO.: 452117, Corning, USA; Cat. NO.: H2610, Xenotech, USA) were preincubated with test compound for 10 minutes at 37° C. in 100 mM potassium phosphate buffer, pH 7.4. The reactions were initiated by adding NADPH regenerating system. The final incubation mixtures contained 1 μM test compound, 0.5 mg/mL liver microsomal protein, 1 mM MgCl2, 1 mM NADP, 1 unit/mL isocitric dehydrogenase and 6 mM isocitric acid in 100 mM potassium phosphate buffer, pH 7.4. After incubation times of 0, 3, 6, 9, 15 and 30 minutes at 37° C., 300 μL of cold acetonitrile (including internal standard) was added to 100 μL incubation mixture to terminate the reaction. Following precipitation and centrifugation, the amount of compound remaining in the samples were determined by LC-MS/MS. Controls of no NADPH regenerating system at zero and 30 minutes were also prepared and analyzed.

hERG channel = hERG channel (Homo sapiens (Human), UniProt Q12809); experiment: hERG channel inhibition assay (patch-clamp, CHO cells); type: cell-based; details: for IC50 / IC20: CHO hERG cells, whole-cell patch-clamp; for IC20: human, CHO cells stably expressing hERG channels; for hERG IC20/TLR7 IC50 / hERG IC20/TLR8 IC50 / hERG IC20/TLR9 IC50: safety ratio
Method: The hERG K^+ channels were cloned in humans and stably expressed in a CHO (Chinese hamster ovary) cell line. CHOhERG cells were used for patch-clamp (voltage-clamp, whole-cell) experiments. Cells were stimulated by a voltage pattern to activate hERG channels and conduct IKhERG currents (rapid delayed outward rectifier potassium current of the hERG channel). After the cells were stabilized for a few minutes, the amplitude and kinetics of IKhERG were recorded at a stimulation frequency of 0.1 Hz (6 bpm). Thereafter, the test compound was added to the preparation at increasing concentrations. For each concentration, an attempt was made to reach a steady-state effect, usually, this was achieved within 3-10 min at which time the next highest concentration was applied. The amplitude and kinetics of IKhERG are recorded in each concentration of the drug which were compared to the control values (taken as 100%). (references: Redfern W S, Carlsson L, Davis A S, Lynch W G, MacKenzie I, Palethorpe S, Siegl P K, Strang I, Sullivan A T, Wallis R, Camm A J, Hammond T G. 2003; Relationships between preclinical cardiac electrophysiology, clinical QT interval prolongation and torsade de pointes for a broad range of drugs: evidence for a provisional safety margin in drug development. Cardiovasc. Res. 58:32-45, Sanguinetti M C, Tristani-Firouzi M. 2006; hERG potassium channels and cardiac arrhythmia. Nature 440:463-469, Webster R, Leishman D, Walker D. 2002; Towards a drug concentration effect relationship for QT prolongation and torsades de pointes. Curr. Opin. Drug Discov. Devel. 5:116-26).

TLR7 and TLR8 = experiment: Human PBMC cell-based assay, TLR7 and TLR8; details: R848 at 1 μg/mL, overnight, cytokine readout, read-out: hPBMC/TLR78 IC50
From the text: Unlike the HEK reporter cell lines, human peripheral blood mononuclear cell (PBMC) represents primary human immune cells in blood mainly consisting of lymphocytes, monocytes, and dendritic cells. These cells express TLR7, TLR8, or TLR9, and therefore are natural responders to respective ligand stimulation. Upon activation of these TLRs, PBMCs secrete similar cytokines and chemokines in vitro and in vivo, and therefore the in vitro potency of a TLR7/8/9 antagonist in human PBMC is readily translatable to its pharmacodynamics response in vivo.
Human peripheral blood mononuclear cells (PBMC) were isolated from freshly-drawn lithium-heparinized (Lithium Heparin Plus blood Collection tube, BD Vacutainer®) healthy donor whole blood by density gradient (Ficoll-Paque™ PLUS, GE Healthcare life Sciences). Briefly, 50 mL of blood was diluted with 25 mL PBS (without Ca^2+, Mg^2+) in a 50 mL conical tube with porous barrier (Leucosep tube, Greiner bio-one), where 15.5 mL Ficoll-Paque was under laid after spinning. Tubes were centrifuged for 20 minutes at 800×g (1946 rpm) with the brake in the off position, and PBMC were collected from the buffy coat. Cells were then washed twice in PBS, and red blood cells were lysed by suspension in 2 mL (Red Blood Cell Lysis Buffer, Alfa Aesar) for 5-10 minutes at room temperature. After a final wash in PBS, PBMC were resuspended at a final concentration of 2×10^6 cells/mL in RPMI-1640 media with GlutaMAX™ (Gibco) supplemented with 10% Fetal Bovine Serum (Sigma) and plated at 150 μL/well (3×10^5 cells/well) in tissue culture treated round bottom 96-well plates (Corning Incorporated). Antagonist compounds (compounds of this invention) solubilized and serial diluted in 100% DMSO were added in duplicate to cells to yield a final concentration of 1% DMSO (v/v). […] Cell culture supernatants were collected, and levels of various human cytokines were assessed by Luminex assay (ProcartaPlex™ Multiplex Immunoassay, Invitrogen) or ELISA procedure according to the manufacturer's recommended protocol (eBioscience, ThermoFisher Scientific). […]

Chain of hERG channel (Q12809 whole entry): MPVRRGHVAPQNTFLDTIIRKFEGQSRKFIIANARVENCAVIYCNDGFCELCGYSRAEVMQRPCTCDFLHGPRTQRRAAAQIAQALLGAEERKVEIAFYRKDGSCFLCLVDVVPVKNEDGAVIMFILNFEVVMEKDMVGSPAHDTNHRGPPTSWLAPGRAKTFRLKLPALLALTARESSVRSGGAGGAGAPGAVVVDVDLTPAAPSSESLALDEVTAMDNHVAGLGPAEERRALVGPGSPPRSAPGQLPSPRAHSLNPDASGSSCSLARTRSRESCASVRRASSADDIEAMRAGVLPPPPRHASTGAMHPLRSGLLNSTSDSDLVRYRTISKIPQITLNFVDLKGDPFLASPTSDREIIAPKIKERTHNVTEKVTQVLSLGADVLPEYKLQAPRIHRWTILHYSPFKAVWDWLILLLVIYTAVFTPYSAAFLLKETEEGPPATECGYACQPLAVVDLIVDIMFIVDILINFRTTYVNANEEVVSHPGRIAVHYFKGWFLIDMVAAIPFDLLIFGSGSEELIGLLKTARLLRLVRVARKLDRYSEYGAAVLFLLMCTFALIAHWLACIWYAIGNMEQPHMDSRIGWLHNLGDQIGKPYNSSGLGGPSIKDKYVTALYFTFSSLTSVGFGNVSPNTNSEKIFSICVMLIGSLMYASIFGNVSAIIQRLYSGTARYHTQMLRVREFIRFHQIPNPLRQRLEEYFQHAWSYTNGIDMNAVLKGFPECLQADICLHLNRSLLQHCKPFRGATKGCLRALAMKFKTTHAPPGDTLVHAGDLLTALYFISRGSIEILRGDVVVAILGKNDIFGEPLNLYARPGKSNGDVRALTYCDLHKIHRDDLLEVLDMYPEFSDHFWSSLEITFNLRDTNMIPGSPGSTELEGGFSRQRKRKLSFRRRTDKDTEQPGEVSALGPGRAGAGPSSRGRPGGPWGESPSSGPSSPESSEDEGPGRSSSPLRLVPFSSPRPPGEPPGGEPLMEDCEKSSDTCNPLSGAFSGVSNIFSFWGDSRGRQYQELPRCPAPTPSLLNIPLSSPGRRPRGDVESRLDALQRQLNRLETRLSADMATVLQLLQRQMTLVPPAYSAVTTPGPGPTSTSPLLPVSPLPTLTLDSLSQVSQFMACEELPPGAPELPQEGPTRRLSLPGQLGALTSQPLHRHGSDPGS

SMILES: Cc1cn2cc(-c3ccc(N4CCC(N5CCNCC5)CC4)nc3C(C)C)cc(C)c2n1 [Example 3, 6-[2-isopropyl-6-(4-piperazin-1-yl-1-piperidyl)-3-pyridyl]-2,8-dimethyl-imidazo[1,2-a]pyridine]
- Clearance of Human microsome [1]: 6.15 mL/min/kg

SMILES: Cc1cn2cc(-c3ccc(N4CCC(N)CC4)nc3C(C)C)cc(C)c2n1 [Example 4, 1-[5-(2,8-dimethylimidazo[1,2-a]pyridin-6-yl)-6-isopropyl-2-pyridyl]piperidin-4-amine]
- Clearance of Human microsome [1]: 8.25 mL/min/kg
- IC50 (hERG channel): > 10 µM
- IC20 (hERG channel): 4.21 µM
- hERG IC20/TLR7 IC50 (hERG channel): 471.9
- hERG IC20/TLR8 IC50 (hERG channel): 1448.2
- hERG IC20/TLR9 IC50 (hERG channel): 27.2

SMILES: Cc1cc(-c2cc(C)c3nccn3c2)cnc1N1CCC(N2CCN(C)CC2)CC1 [Example 9, 8-methyl-6-[5-methyl-6-[4-(4-methylpiperazin-1-yl)-1-piperidyl]-3-pyridyl]imidazo[1,2-a]pyridine]
- IC50 (TLR7 and TLR8): 0.008 µM
- Clearance of Human microsome [1]: 7.20 mL/min/kg

SMILES: Cc1cc(-c2ccc(N3CCC(N4CCNCC4)CC3)nc2C(F)F)cn2ccnc12 [Example 10, 6-[2-(difluoromethyl)-6-(4-piperazin-1-yl-1-piperidyl)-3-pyridyl]-8-methyl-imidazo[1,2-a]pyridine]
- Clearance of Human microsome [1]: 9.15 mL/min/kg

SMILES: Cc1cn2cc(-c3ccc(N4CCC(N5CCNCC5)CC4)nc3C(F)F)cc(C)c2n1 [Example 11, 6-[2-(difluoromethyl)-6-(4-piperazin-1-yl-1-piperidyl)-3-pyridyl]-2,8-dimethyl-imidazo[1,2-a]pyridine]
- Clearance of Human microsome [1]: 7.02 mL/min/kg

SMILES: Cc1cn2cc(-c3ccc(N4CCC(N5CC(C)(N)C5)CC4)nc3C(F)F)cc(C)c2n1 [Example 12, 1-[1-[6-(difluoromethyl)-5-(2,8-dimethylimidazo[1,2-a]pyridin-6-yl)-2-pyridyl]-4-piperidyl]-3-methyl-azetidin-3-amine]
- IC50 (TLR7 and TLR8): 0.016 µM
- Clearance of Human microsome [1]: 6.15 mL/min/kg

SMILES: CCc1nc(N2CCC(N3CC4(CNCCO4)C3)CC2)ccc1-c1cc(C)c2nccn2c1 [Example 14, 2-[1-[6-ethyl-5-(8-methylimidazo[1,2-a]pyridin-6-yl)-2-pyridyl]-4-piperidyl]-5-oxa-2,8-diazaspiro[3.5]nonane]
- Clearance of Human microsome [1]: 9.45 mL/min/kg

SMILES: CCc1nc(N2CCC(N3C[C@@H](N)[C@H](OC)C3)CC2)ccc1-c1cc(C)c2nccn2c1 [Example 15, (3R,4R)-1-[1-[6-ethyl-5-(8-methylimidazo[1,2-a]pyridin-6-yl)-2-pyridyl]-4-piperidyl]-4-methoxy-pyrrolidin-3-amine]
- Clearance of Human microsome [1]: 6.15 mL/min/kg
- IC50 (hERG channel): > 20 µM
- IC20 (hERG channel): 8.36 µM
- hERG IC20/TLR7 IC50 (hERG channel): 2144.2
- hERG IC20/TLR8 IC50 (hERG channel): 2090
- hERG IC20/TLR9 IC50 (hERG channel): 38.7

SMILES: CCc1nc(N2CCC(C)(N)CC2)ccc1-c1cc(C)c2nc(C)cn2c1 [Example 20, 1-[5-(2,8-dimethylimidazo[1,2-a]pyridin-6-yl)-6-ethyl-2-pyridyl]-4-methyl-piperidin-4-amine]
- IC50 (hERG channel): > 20 µM
- IC20 (hERG channel): > 10 µM
- hERG IC20/TLR7 IC50 (hERG channel): >1666.7
- hERG IC20/TLR8 IC50 (hERG channel): >636.9
- hERG IC20/TLR9 IC50 (hERG channel): >44.2

SMILES: CCc1cc(-c2cc(C)c3nccn3c2)cnc1N1CCC2(CCNCC2)CC1 [Example 22, 3-[3-ethyl-5-(8-methylimidazo[1,2-a]pyridin-6-yl)-2-pyridyl]-3,9-diazaspiro[5.5]undecane]
- Clearance of Human microsome [1]: 6.15 mL/min/kg

SMILES: COc1nc(N2CCC(N3CCNCC3)CC2)ccc1-c1cc(C)c2nccn2c1 [Example 25, 6-[2-methoxy-6-(4-piperazin-1-yl-1-piperidyl)-3-pyridyl]-8-methyl-imidazo[1,2-a]pyridine]
- IC50 (TLR7 and TLR8): 0.0045 µM
- Clearance of Human microsome [1]: 6.15 mL/min/kg
- IC50 (hERG channel): > 20 µM
- IC20 (hERG channel): 5.78 µM
- hERG IC20/TLR7 IC50 (hERG channel): 837.6
- hERG IC20/TLR8 IC50 (hERG channel): 516.0
- hERG IC20/TLR9 IC50 (hERG channel): 62.8
